Source: US9212163B2, “Pesticidal compositions and processes related thereto” (Dow AgroSciences LLC, priority 2012, dated 2015)

Assays:
[1] = test system: Cabbage Looper (CL) (Trichoplusia ni); assay: Bioassay on Cabbage Looper (CL), 128-well diet tray assay; assay type: in vivo; settings: read-out: CL Rating; for pest or weed control at 50 µg/cm2: Table 5: Prophetic Compounds Subsequently Exemplified; for pest or weed control at 50 µg/cm2, 50 µg/cm2: 168 h, % mortality, second instar larvae, 50 μg/cm^2 on artificial diet, 25° C., five to seven days, average of eight wells
Procedure: Certain molecules disclosed in this document were tested against BAW, CEW and CL using procedures described in the following examples. In the reporting of the results, the “BAW & CEW & CL Rating Table” was used (See Table Section).
Bioassays on CL (Trichoplusia ni)
Bioassays on CL were conducted using a 128-well diet tray assay. One to five second instar CL larvae were placed in each well (3 mL) of the diet tray that had been previously filled with 1 mL of artificial diet to which 50 μg/cm^2 of the test compound (dissolved in 50 μL of 90:10 acetone-water mixture) had been applied (to each of eight wells) and then allowed to dry. Trays were covered with a clear self-adhesive cover, and held at 25° C., 14:10 light-dark for five to seven days. Percent mortality was recorded for the larvae in each well; activity in the eight wells was then averaged. The results are indicated in the table entitled “Table 4: Assay Results Part 2” (See Table Section).

[2] = test system: Beet Armyworm (BAW) (Spodoptera exigua); assay: Bioassay on Beet Armyworm (BAW), 128-well diet tray assay; assay type: in vivo; settings: Spodoptera exigua, read-out: BAW Rating; for pest or weed control at 50 µg/cm2: Table 5: Prophetic Compounds Subsequently Exemplified; for pest or weed control at 50 µg/cm2, 50 µg/cm2: 168 h, % mortality, second instar larvae, 50 μg/cm^2 on artificial diet, 25° C., five to seven days, average of eight wells
How it was run: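 Artificial diet treated with 50 μg/cm^2 compound in 90:10 acetone-water was dried, then one to five second-instar larvae were placed per well, eight wells per compound. Trays were held at 25° C., 14:10 light-dark for five to seven days, and percent mortality averaged across wells.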

In the case of `O=C(NC1(C(=O)NCC(F)(F)F)CC1)c1ccc(/C=C/C(c2cc(Cl)c(Cl)cc2Cl)C(F)(F)F)cc1C(F)(F)F` (stereo not drawn) [Compound P110], the pest or weed control at 50 µg/cm2 [1] is reported as 50 to 100% and the pest or weed control at 50 µg/cm2 [2] is reported as 50 to 100%.
`O=C(NC1(C(=S)NCC(F)(F)F)CC1)c1ccc(/C=C/C(c2cc(Cl)c(Cl)c(Cl)c2)C(F)(F)F)cc1Br` (stereo not drawn) [Compound P1009] was tested, and the pest or weed control at 50 µg/cm2 [1] was 50 to 100% and the pest or weed control at 50 µg/cm2 [2] was 50 to 100%.
With `O=C(NC1(C(=O)NCC(F)(F)F)CC1)c1ccc(/C=C/C(c2cc(Cl)c(Cl)c(Cl)c2)C(F)(F)C(F)(F)F)cc1Br` (stereo not drawn) [Compound P1003] the pest or weed control at 50 µg/cm2 [1] was 50 to 100% and the pest or weed control at 50 µg/cm2 [2] was 50 to 100%.
In the case of `O=C(NC1(C(=S)NCC(F)(F)F)CC1)c1ccc(/C=C/C(c2cc(Cl)c(Cl)c(Cl)c2)C(F)(F)F)cc1C(F)(F)F` (stereo not drawn) [Compound F6, (E)-4-(4,4,4-Trifluoro-3-(3,4,5-trichlorophenyl)but-1-enyl)-N-(1-(2,2,2-trifluoroethylcarbamothioyl)cyclopropyl)-2-(trifluoromethyl)benzamide], the pest or weed control at 50 µg/cm2, 50 µg/cm2 [1] is reported as 50 to 100% and the pest or weed control at 50 µg/cm2, 50 µg/cm2 [2] is reported as 50 to 100%.
For `N#CC1(NC(=O)c2ccc(/C=C/C(c3cc(Cl)c(Cl)c(Cl)c3)C(F)(F)F)cc2Br)CC1` (stereo not drawn) [Compound F7, (E)-2-Bromo-N-(1-cyanocyclopropyl)-4-(4,4,4-trifluoro-3-(3,4,5-trichlorophenyl)but-1-en-1-yl)benzamide], the pest or weed control at 50 µg/cm2, 50 µg/cm2 [1] was 50 to 100% and the pest or weed control at 50 µg/cm2, 50 µg/cm2 [2] was 50 to 100%.
Work on `O=C(NC1(C(=O)NCCC(F)(F)F)CC1)c1ccc(/C=C/C(c2cc(Cl)c(Cl)c(Cl)c2)C(F)(F)F)cc1Br` (stereo not drawn) [Compound P1033] yielded a pest or weed control at 50 µg/cm2 [1] of 50 to 100% and a pest or weed control at 50 µg/cm2 [2] of 50 to 100%.
Work on `CCNC(=O)C1(NC(=O)c2ccc(/C=C/C(c3cc(Cl)c(Cl)c(Cl)c3)C(F)(F)F)cc2Br)CC1` (stereo not drawn) [Compound P1023] yielded a pest or weed control at 50 µg/cm2 [1] of 50 to 100% and a pest or weed control at 50 µg/cm2 [2] of 50 to 100%.
`O=C(NC1(C(=O)NCC(F)(F)F)CC1)c1ccc(/C=C/C(c2cc(Cl)cc(Cl)c2)C(F)(F)F)cc1Br` (stereo not drawn) [Compound P1048] gave a pest or weed control at 50 µg/cm2 [1] of 50 to 100% and a pest or weed control at 50 µg/cm2 [2] of 50 to 100%.
`O=C(NC1(C(=O)NCC(F)(F)F)CC1)c1ccc(/C=C/C(c2cc(Cl)c(Cl)c(Cl)c2)C(F)(F)C(F)(F)F)cc1C(F)(F)F` (stereo not drawn) [Compound P1005] gave a pest or weed control at 50 µg/cm2 [1] of 50 to 100% and a pest or weed control at 50 µg/cm2 [2] of 50 to 100%.
With `Cc1cc(/C=C/C(c2cc(Cl)c(Cl)c(Cl)c2)C(F)(F)F)ccc1C(=O)NC1(C(=O)NCC(F)(F)F)CC1` (stereo not drawn) [Compound F2] the pest or weed control at 50 µg/cm2, 50 µg/cm2 [1] was 50 to 100% and the pest or weed control at 50 µg/cm2, 50 µg/cm2 [2] was 50 to 100%.
With `Cc1cc(C(/C=C/c2ccc(C(=O)NC3(C(=O)NCC(F)(F)F)CC3)c(Br)c2)C(F)(F)F)ccc1Cl` (stereo not drawn) [Compound P243] the pest or weed control at 50 µg/cm2 [1] was 50 to 100% and the pest or weed control at 50 µg/cm2 [2] was 50 to 100%.
Work on `Cc1cc(C(/C=C/c2ccc(C(=O)NC3(C(=O)NCC(F)(F)F)CC3)c(Br)c2)C(F)(F)F)cc(C)c1F` (stereo not drawn) [Compound P333] yielded a pest or weed control at 50 µg/cm2 [1] of 50 to 100% and a pest or weed control at 50 µg/cm2 [2] of 50 to 100%.
With `O=C(NC1(C(=O)NCC(F)(F)F)CC1)c1ccc(/C=C/C(c2ccc(Cl)c([N+](=O)[O-])c2)C(F)(F)F)cc1Br` (stereo not drawn) [Compound P468] the pest or weed control at 50 µg/cm2 [1] was 50 to 100% and the pest or weed control at 50 µg/cm2 [2] was 50 to 100%.
Work on `N#Cc1cc(C(/C=C/c2ccc(C(=O)NC3(C(=O)NCC(F)(F)F)CC3)c(Br)c2)C(F)(F)F)ccc1F` (stereo not drawn) [Compound P513] yielded a pest or weed control at 50 µg/cm2 [1] of 50 to 100% and a pest or weed control at 50 µg/cm2 [2] of 50 to 100%.
`O=C(NC1(C(=O)NCCF)CC1)c1ccc(/C=C/C(c2cc(Cl)c(Cl)c(Cl)c2)C(F)(F)F)cc1C(F)(F)F` (stereo not drawn) [Compound P1020] gave a pest or weed control at 50 µg/cm2 [1] of 50 to 100% and a pest or weed control at 50 µg/cm2 [2] of 50 to 100%.
